Results on 15 compounds are retold here after patent US12187713B2, “Immunomodulators, compositions and methods thereof” (Betta Pharmaceuticals Co., Ltd, priority 2019, dated 2025).

For one test, the target named is PD-1/PD-L1 (Homo sapiens (Human), UniProt Q9NZQ7). As to the kind of experiment: PD-1/PD-L1 Binding Assay (Alphascreen). Conditions: numeric values. On the procedure: PD-1/PD-L1 Binding Assay (Alphascreen)
PD-1/PD-L1, sequence (Q9NZQ7 19-238): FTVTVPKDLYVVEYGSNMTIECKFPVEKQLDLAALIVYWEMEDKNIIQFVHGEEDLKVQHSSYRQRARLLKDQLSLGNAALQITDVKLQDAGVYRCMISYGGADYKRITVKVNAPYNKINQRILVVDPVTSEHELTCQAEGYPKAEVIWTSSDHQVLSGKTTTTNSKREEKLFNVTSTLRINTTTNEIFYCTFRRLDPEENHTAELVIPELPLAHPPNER
The assays were conducted in a standard black 384-well polystyrene plate with a final volume of 20 μL. Inhibitors were first serially diluted in DMSO and then added to the plate wells before the addition of other reaction components. The final concentration of DMSO in the assay was […]. Add 100 nL/well of compound to the 384 reaction plate (6008280, PerkinElmer) with Echo and centrifuge at 1000 rpm for 1 minute. Add 5 μL/well 4×PD-L1 solutions to the 384 reaction plate, centrifuge at 1000 rpm for 1 minute, and add 5 μL/well 4×PD-1 solutions, centrifuge at 1000 rpm for 1 minute, and incubate at 25° C. for 15 minutes. The concentrations of the compounds were 300, 100, 33.33, 11.11, 3.70, 1.23, 0.41, 0.137, 0.046, 0.015, 0 nM, respectively. Add 10 μL/well 2× Anti-6×His AlphaLISA Acceptor beads and Streptavidin Donor beads solution (PerkinElmer-AL356F) to the above 384 reaction plate, centrifuge at 1000 rpm for 1 minute, and incubate at 25° C. in the dark for 120 minutes. Read the AlphaLISA signal value using the Envision Reader. IC50 determination was performed by fitting the curve of percent control activity versus the log of the inhibitor concentration using the GraphPad Prism 8.0 software.
In general terms: Alpha assays give light when donor and acceptor beads are brought close together.
Take `Cc1c(-c2nc3cc(CN4CCC[C@H]4C(=O)O)c(OC(F)F)cc3o2)cccc1-c1cccc(-c2ccc(CNC[C@@H]3CCC(=O)N3)cc2)c1F` [Example 215, ((6-(difluoromethoxy)-2-(2′-fluoro-2-methyl-4″- (((((S)-5-oxopyrrolidin-2-yl)methyl)amino)methyl)-[1,1′:3′,1″- terphenyl]-3-yl)benzo[d]oxazol-5-yl)methyl)-L-proline]: the IC50 (usually the concentration that gives 50% inhibition) was determined as 2.8 nM.

Compound `Cc1c(COc2cc(OCc3cncc(OC(F)F)c3)c(CN3CC[C@@H](O)C3)cc2Cl)cccc1-c1cccc(-c2nc3cc(CN4CCC[C@H]4C(=O)O)c(OC(F)F)cc3o2)c1C` [Example 208, ((2-(3′-((2-chloro-5-((5-(difluoromethoxy)pyridin-3-yl)methoxy)-4-(((R)-3-hydroxypyrrolidin-1-yl)methyl)phenoxy)methyl)-2,2′-dimethyl-[1,1′-biphenyl]-3-yl)-6-(difluoromethoxy)benzo[d]oxazol-5-yl)methyl)-L-proline] registered an IC50 of 114 nM.

For the compound `COC(=O)N[C@H](C(=O)N[C@H]1CCN(Cc2ccc(-c3cccc(-c4cccc(-c5nc6cc(CN7CCC[C@H]7C(=O)O)c(OC(F)F)cc6o5)c4C)c3C)cc2)C1)C(C)C` [Example 257, ((6-(difluoromethoxy)-2-(4″-(((S)-3-((S)-2-((methoxycarbonyl)amino)-3-methylbutanamido)pyrrolidin-1-yl)methyl)-2,2′-dimethyl-[1,1′:3′,1″-terphenyl]-3-yl)benzo[d]oxazol-5-yl)methyl)-L-proline], the IC50 came to 4.4 nM.

On to `COc1cc(-c2cccc(-c3cccc(-c4nc5cc(CN6CCC[C@H]6C(=O)O)c(OC(F)F)cc5o4)c3C)c2C)cc(F)c1CN1CCCC1` [Example 235, ((6-(difluoromethoxy)-2-(3″-fluoro-5″- methoxy-2,2′-dimethyl-4″-(pyrrolidin-1-ylmethyl)-[1,1′:3′,1″-terphenyl]-3-yl)benzo[d]oxazol-5-yl)methyl)-L-proline], for which the IC50 came to 1.8 nM.

`Cc1c(-c2nc3c(o2)CCN(CC(=O)O)C3)cccc1-c1cccc(-c2nc3cc(CN4CCC[C@H]4C(=O)O)c(OC(F)F)cc3o2)c1C` [Example 184, ((2-(3′-(5-(carboxymethyl)-4,5,6,7-tetrahydrooxazolo[4,5-c]pyridin-2-yl)-2,2′-dimethyl-[1,1′-biphenyl]-3-yl)-6-(difluoromethoxy)benzo[d]oxazol-5-yl)methyl)-L-proline] returned a half-inhibitory concentration (IC50) of 2.3 nM.

The same test, now with this note: range symbols.
In turn, `Cc1c(-c2nc3cc(CN4CCC[C@H]4C(=O)O)c(OC(F)F)cc3o2)cccc1-c1cccc(-c2nc3cc(CN4CC(N5CC(C)(O)C5)C4)cc(C#N)c3o2)c1C` [Example 150, ((2-(3′-(7-cyano-5-((3-hydroxy-3-methyl-[1,3′-biazetidin]-1′-yl)methyl)benzo[d]oxazol-2-yl)-2,2′-dimethyl-[1,1′-biphenyl]-3-yl)-6-(difluoromethoxy)benzo[d]oxazol-5-yl)methyl)-L-proline] came in with an IC50 of 0.1 to 5 nM.

Compound `CCCNCCCNCc1cc2nc(-c3cccc(-c4cccc(-c5nc6cc(CN7CCC[C@H]7C(=O)O)c(OC(F)F)cc6o5)c4C)c3C)oc2cc1OC(F)F` [Example 52, ((6-(difluoromethoxy)-2-(3′-(6-(difluoromethoxy)-5-(((3-(propylamino)propyl)amino)methyl)benzo [d]oxazol-2-yl)-2,2′-dimethyl-[1,1′-biphenyl]-3-yl)benzo[d]oxazol-5-yl)methyl)-L-proline] showed an IC50 of 0.1 to 5 nM.

As for `COc1nc(-c2cccc(-c3cccc(-c4nc5cc(CN6CCC[C@H]6C(=O)O)c(OC(F)F)cc5o4)c3C)c2C)ccc1CN1CC(C)(C)C1` [Example 271, ((6-(difluoromethoxy)-2-(3′-(5-((3,3-dimethylazetidin-1-yl)methyl)-6-methoxypyridin-2-yl)-2,2′-dimethyl-[1,1′-biphenyl]-3-yl)benzo[d]oxazol-5-yl)methyl)-L-proline], the IC50 is 0.1 to 5 nM.

Regarding `Cc1c(-c2nc3cc(CN4CCC4C)ccc3o2)cccc1-c1cccc(-c2nc3cc(CN4CCC[C@H]4C(=O)O)c(OC(F)F)cc3o2)c1C` (stereo partly drawn) [Example 313, ((6-(difluoromethoxy)-2-(2,2′-dimethyl-3′-(5-((2-methylazetidin-1-yl)methyl)benzo[d]oxazol-2-yl)-[1,1′-biphenyl]-3-yl)benzo[d]oxazol-5-yl)methyl)-L-proline], the IC50 was 0.1 to 5 nM.

`Cc1c(-c2nc3cc(CN4CCC[C@H]4C(=O)O)c(OC(F)F)cc3o2)cccc1-c1cccc(-c2nc3cc(CN4CCC(CN(C)C)C4)cc(C#N)c3o2)c1C` (stereo partly drawn) [Example 152, ((2-(3′-(7-cyano-5-((3-((dimethylamino)methyl)pyrrolidin-1-yl)methyl)benzo [d]oxazol-2-yl)-2,2′-dimethyl-[1,1′-biphenyl]-3-yl)-6-(difluoromethoxy)benzo[d]oxazol-5-yl)methyl)-L-proline] came in with an IC50 of 0.1 to 5 nM.

As for `CC1(C)CN(Cc2cc3nc(-c4cccc(-c5cccc(-c6nc7cc(CN8CCC[C@H]8C(=O)O)c(OC(F)F)cc7o6)c5C#N)c4C#N)oc3cc2OC(F)F)C1` [Example 83, ((2-(2,2′-dicyano-3′-(6-(difluoromethoxy)-5-((3,3-dimethylazetidin-1-yl)methyl)benzo[d]oxazol-2-yl)-[1,1′-biphenyl]-3-yl)-6-(difluoromethoxy)benzo[d]oxazol-5-yl)methyl)-L-proline], the IC50 lay within 5 to 50 nM.

As to `Cc1c(-c2cnc(N3CCN(C)CC3)nc2)cccc1-c1cccc(-c2nc3cc(CN4CCC[C@H]4C(=O)O)c(OC(F)F)cc3o2)c1C` [Example 282, ((6-(difluoromethoxy)-2-(2,2′-dimethyl-3′-(2-(4-methylpiperazin-1-yl)pyrimidin-5-yl)-[1,1′-biphenyl]-3-yl)benzo[d]oxazol-5-yl)methyl)-L-proline], the 50% inhibitory concentration (IC50) fell in the range of 5 to 50 nM.

As to `Cc1c(-c2nc3cc(CN4CCC[C@H]4C(=O)O)c(OC(F)F)cc3o2)cccc1-c1cccc(-c2nc3cc(CN4CC[C@H](Cl)C4)cc(C#N)c3o2)c1C` [Example 261, ((2-(3′-(5-(((S)-3-chloropyrrolidin-1-yl)methyl)-7-cyanobenzo [d]oxazol-2-yl)-2,2′-dimethyl-[1,1′-biphenyl]-3-yl)-6-(difluoromethoxy)benzo[d]oxazol-5-yl)methyl)-L-proline], the IC50 lay in the range of 0.1 to 5 nM.

With `Cc1c(-c2nc3cc(CN4CCC[C@H]4C(=O)O)c(OC(F)F)cc3o2)cccc1-c1cccc(-c2nc3cc(CN4CC[C@H](C)C4)cc(C#N)c3o2)c1C` [Example 130, ((2-(3′-(7-cyano-5-(((S)-3-methylpyrrolidin-1-yl)methyl)benzo[d]oxazol-2-yl)-2,2′-dimethyl-[1,1′-biphenyl]-3-yl)-6-(difluoromethoxy)benzo[d]oxazol-5-yl)methyl)-L-proline], the IC50 lay in the range of 0.1 to 5 nM.

Consider `Cc1c(-c2ccc(CN3CCCC3)cn2)cccc1-c1cccc(-c2nc3cc(CN4CCC[C@H]4C(=O)O)c(OC(F)F)cc3o2)c1C` [Example 264, ((6-(difluoromethoxy)-2-(2,2′-dimethyl-3′-(5-(pyrrolidin-1-ylmethyl)pyridin-2-yl)-[1,1′-biphenyl]-3-yl)benzo[d]oxazol-5-yl)methyl)-L-proline], for which the IC50 lay in the range of 0.1 to 5 nM.
